Experimental data from paper PMC11912471 (Journal of Medicinal Chemistry, 2025).
Where a name gives a salt, the structure may show the parent alone. Read-outs that look alike come from different tables or passages of the source.

Tests used:
[1] = target: T1, purified human ODC enzyme (Homo sapiens, UniProt P11926); assay: In vitro ODC enzyme activity assay; assay type: biochemical; settings: for IC50: read-out: ODC biochemical inhibition IC50
T1 construct: His6 (C); made in house; host or cells: E. coli BL21(DE3)
T1 sequence (P11926 1-461): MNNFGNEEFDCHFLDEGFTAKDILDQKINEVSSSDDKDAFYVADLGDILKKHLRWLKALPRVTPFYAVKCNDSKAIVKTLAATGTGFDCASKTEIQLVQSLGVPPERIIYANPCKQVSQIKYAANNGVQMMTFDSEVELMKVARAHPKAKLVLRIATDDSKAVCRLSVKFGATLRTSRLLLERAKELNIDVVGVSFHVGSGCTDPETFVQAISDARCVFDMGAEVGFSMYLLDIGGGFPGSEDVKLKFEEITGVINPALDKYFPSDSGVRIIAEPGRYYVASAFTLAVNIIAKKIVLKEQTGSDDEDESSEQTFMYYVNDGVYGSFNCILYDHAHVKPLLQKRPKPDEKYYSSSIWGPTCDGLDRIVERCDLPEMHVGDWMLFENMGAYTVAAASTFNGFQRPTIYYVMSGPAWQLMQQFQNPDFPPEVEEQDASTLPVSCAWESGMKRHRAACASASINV
Description: (§1) Our strategy to identify novel ODC inhibitors was to first screen new analogs for ODC inhibition at 50 μM using our in vitro enzyme activity assay and purified human ODC (Table 1). Those showing significant inhibition were then titrated to provide an ODC IC50 followed by cell-based screening against both cancer (Kelly neuroblastoma) and noncancerous (neonatal fibroblasts) cell lines. For the cancer cell line, higher cytotoxicity was desired and for the noncancerous cell line counter screen, lower cytotoxicity was desired.
In vitro ODC activity was measured using 100 ng of purified human ODC enzyme, as we previously described.[53],[99] ODC was incubated with increasing concentrations of inhibitors for 30 min at room temperature in a buffer containing 25 mM Tris and 0.1 mM EDTA. […] In the cell-based ODC activity assay, Kelly neuroblastoma cells that were treated with 500 μM inhibitors were harvested in a buffer containing 25 mM Tris HCl, 0.1 mM EDTA, and 2.5 mM DTT. […] For both the in vitro and cell-based assay, the microcentrifuge tubes were then placed into scintillation vials containing a piece of filter paper saturated with 200 μL of 0.1 M NaOH to capture the release of radiolabeled carbon dioxide. The samples were incubated in a 37 °C incubator while shaking for 30 min (in vitro) or 2 h (cell-based). The enzymatic reaction was stopped by adding 250 μL of 5 M sulfuric acid to each sample and incubating at 37 °C while shaking for 30 min. The microcentrifuge tubes were removed from the scintillation vials, and 5 mL of scintillation fluid was added. Disintegrations per minute (DPM) of each sample was measured using a TriCarb liquid scintillation counter (PerkinElmer). The specific ODC activity is expressed as nmol CO2/min/mg protein (in vitro) or pmol CO2/min/mg protein (cell-based). The individual ODC inhibitor IC50 values were determined using Graphpad Prism 8.

[2] = tested on: Kelly neuroblastoma cells; assay: Sulforhodamine B (SRB) cytotoxicity assay, Kelly neuroblastoma cells; assay type: cell-based; settings: for Cell cytotoxicity (72 hr @ 500 μM) Kelly Neuroblastoma: percent cytotoxicity; for cytotoxicity at 500 µM: Kelly, 72 hrs @500 µM, supplement csv, read-out: Kelly Neuroblasoma Cells (72 hrs @500 µM) %cytotoxicity
Description: as §1
(§2) Normal primary human neonatal fibroblast cells (ATCC) were maintained in DMEM medium (Gibco) supplemented with 10% heat-inactivated fetal bovine serum (Hyclone), penicillin (100 IU/mL), and streptomycin (100 μg/mL), nonessential amino acids (0.1 mM) and sodium pyruvate (1 mM). Kelly neuroblastoma cells (Sigma-Aldrich) were maintained in RPMI medium (Corning) supplemented with 10% heat-inactivated fetal bovine serum (Hyclone), penicillin (100 IU/mL), and streptomycin (100 μg/mL). Cell lines were routinely monitored for mycoplasma contamination using the MycoAlert PLUS Mycoplasma Detection Kit (Lonza).
(§3) The colorimetric sulforhodamine B (SRB) assay was used to measure cytotoxicity following treatment with ODC inhibitors. Briefly, Kelly neuroblastoma cells and normal primary human neonatal fibroblast cells were plated in transparent flat 96-well plates and allowed to attach overnight. Cells were treated with control or 500 μM ODC inhibitor for 72 h. Cells were then fixed with 10% TCA at 4 °C for 1 h, washed with deionized water, and dried at room temperature. Cells were stained with 100 μL of 0.4% SRB in 1% acetic acid for 20 min at room temperature, rinsed five times with 1% acetic acid and allowed to dry at room temperature. One hundred μL of 10 mM Tris–HCl pH 7.0 was added to each well, shaken for 10 min at room temperature and absorbance was read at 540 nm. Absorbance values were normalized relative to control readings and converted to percentage by multiplying by one hundred. The percent cytotoxicity was then determined by subtracting the relative percentage of the ODC inhibitor treated readings from the control which is 100%.

[3] = Sulforhodamine B (SRB) cytotoxicity assay, neonatal fibroblasts; assay type: cell-based, human; settings: human, normal primary neonatal fibroblast cells; 72 hrs @500 µM; supplement csv
Description: as §1, §2, §3

[4] = tested on: normal primary human neonatal fibroblast cells; assay: as above; assay type: cell-based; settings: 500 μM; for Cell cytotoxicity (72 hr @ 500 μM) Neonatal Fibroblasts: percent cytotoxicity
Description: as §1, §2, §3

[5] = tested on: polyamine levels in Kelly neuroblastoma cells; assay: Polyamine analysis (HPLC of dansylated polyamines); assay type: cell-based; settings: 500 μM inhibitor; for Kelly Treated Neuroblastoma Cells (Total Spm): Control = 2.57+0.47; for Kelly Treated Neuroblastoma Cells (Spd): Control = 8.52+1.63; for Kelly Treated Neuroblastoma Cells (Total Put): Control = 9.71+1.31; for Kelly Treated Neuroblastoma Cells (Total PA): Control = 20.81 +2.67; for polyamine levels relative to control (in words) / putrescine level (in words): Figure 6B
Description: Polyamines from Kelly neuroblastoma cells treated with 500 μM inhibitors were isolated, dansylated, and analyzed by HPLC. Briefly, polyamines were extracted and protonated in perchloric acid/sodium chloride buffer. To 100 μL of sample, 4.5 nmol of 1,7 diaminoheptane internal standard and 200 μL of 1 M sodium carbonate was added prior to dansylation with 400 μL of 5 mg/mL dansyl chloride (Sigma-Aldrich) for 60 min at 65 °C. One hundred μL of 1 M proline was then added to each reaction and incubated for 20 min at 65 °C. Polyamines were extracted from the mixture using methylene chloride. The methylene chloride was allowed to evaporate, the samples were resuspended in methanol and run through a C18 cleanup column. Samples were then analyzed using a Thermo Scientific/Dionex Ultimate 3000 HPLC, using a Syncronis C18 column (250 × 4.6 mm, […] pore size), and containing a fluorescence detector. The dansylated polyamine peaks were visualized by excitation at 340 nm and emission at 515 nm. The buffers used for elution of the polyamines were as follows: buffer A: 10 mM sodium heptanesulfonate/10% acetontrile at pH 3.4. Buffer B: 100% acetonitrile. The flow rate was 0.7 mL per minute. The column was equilibrated with 55% buffer B/45% buffer A prior to injection of the sample. Upon injection of the sample, elution of polyamines occurs in an isocratic solution of 55% buffer B/45% buffer A for 28 min. The solution was then slowly ramped to 95% buffer B/5% buffer A for 20 min. This gradient was held for 27 min to elute the spermine peak. The solution was then quickly dropped back to 55% buffer B/45% buffer A to re-equilibrate the column prior to the next sample being injected. Using the relative molar response derived from N-dansylated PA and 1,7 diaminoheptane standards, the amount of N-dansylated polyamines was calculated and normalized to total sample protein.

[6] = read-out: ODC biochemical inhibition % (50 μM)

Structure (SMILES) | inhibition at 50 µM ([1]; 50 µM, supplement csv, read-out: ODC % inhibition (screened at 50 µM)) | inhibition at 50 µM [1, 6] | IC50 [1] | activity against Kelly neuroblastoma cells (in words) ([2]; 72 h, 500 μM) | Cell cytotoxicity (72 hr @ 500 μM) Kelly Neuroblastoma ([2]; 500 μM) | cytotoxicity at 500 µM [2] | cytotoxicity at 72 h, 500 µM [3] | cytotoxic activity against neonatal fibroblasts (in words) ([4]; 72 h) | Cell cytotoxicity (72 hr @ 500 μM) Neonatal Fibroblasts [4] | Kelly Treated Neuroblastoma Cells (Total Spm) [5] | Kelly Treated Neuroblastoma Cells (Spd) [5] | Kelly Treated Neuroblastoma Cells (Total Put) [5] | Kelly Treated Neuroblastoma Cells (Total PA) [5] | polyamine levels relative to control (in words) ([5]; Kelly neuroblastoma cells) | putrescine level (in words) ([5]; Kelly neuroblastoma cells) | spermidine and spermine levels (in words) ([5]; Kelly neuroblastoma cells, relative to APA)
NCCCON [APA, 3-(Aminooxy)propan-1-Amine Dihydrochloride] | 99% | > 99% | 40 nM | greater anticancer activity | 77±21% | 77% | 37% | somewhat reduced overt cytotoxic activity | 37±10% | 5.09+1.39 | 7.14+6.27 | 0 | 12.2+7.59 | reduced polyamine levels | undetected | –
Cl.Cl.NOCC1(F)CCNC1 (stereo not shown) [Compound 11, 3-[(aminooxy)methyl]-3-fluoropyrrolidine di-formic acid] | – | > 99% | 50 nM | – | 46±9% | 46% | 21% | – | 21±17% | 2.74+0.46 | 1.81+0.73 | 0 | 4.55+1.14 | reduced polyamine levels | undetected | greatest reductions
